Assay results from US20240182472A1, “INDAZOLE PYRIDONE COMPOUNDS AND USES THEREOF” (Bluejay Therapeutics, Inc., priority 2022, published 2024).
Like-named read-outs stand apart in the source and are kept apart here.

Tests used:
HBV S-antigen secretion = experiment: HBsAg assay (HepG2 HBV S-antigen secretion biological assay); format: cell-based; conditions: Hepatitis B virus, HepG2.2.15, 72 h, read-out: EC50, HBV S-antigen secretion
Procedure: HepG2.2.15 cells were grown in flasks microscopically and seeded into 96-well plates at a concentration of 6.0×10^4 cells/well and incubated at 37° C., 5% CO2 overnight.
Source plate preparation. The stock concentration of reference compound and test compounds is 20 mM. Firstly, manually diluted the compound to obtain the first concentration points of 10 μM and 200 μM, respectively. Then a 3-fold, 8 points serial dilution is performed to obtain the 200× source plate.
Source plate compounds were pipetted as follows: 3 μL 200× source plate compounds into sterile 2 mL 96 well plate which contain 297 μL 2% FBS Medium, mix well and transfer 100 μL/well to corresponding cell culture plates. Therefore, the test conditions of the final compounds is 1 μM initiation, 3-fold serial dilution, and 8 concentration points in duplicate.
Incubate the cells at 37° C., 5% CO2 for three days.
24 hours post-seeding, the cells were treated with 200 μl/well of media containing serially diluted compounds in DMSO. DMSO alone was used as the no drug control. The final DMSO concentration in all wells was 0.5%.
The HBsAg kit (Auto Biology-CL 0310) was used to determine the level of secreted HBVsAg. The HBSAg assay was performed as follows: • a) Blance the ELISA kit at room temperature for 30 minutes. • b) Add 50 μL standard solution, sample, positive and negative control to each well of the microplate in the kit. • c) Add 50 μL HBsAg enzyme conjugate to each well. • d) Attach the plate membrane, oscillate for 60 seconds, and incubate at 37° C. for 60 minutes. • e) Add 350 μL washing buffer to each well, shake slightly, discard liquid, repeat 6 times. Then pat 5 times on an absorbent paper towel to dry the hole. • f) Add 50 μL mixture of reagent A and B to each well. Oscillate the microplate for 10 seconds. • g) Cover the plate membrane and incubate at room temperature for 10 minutes. Read the luminescent signal using Biotek-Synergy 2.
Compounds inhibition against HBsAg at different concentrations are calculated by the following formula:
Inhibition %=(1−value of sample/ave. value of control)×100
50% effective concentrations (EC50) and were calculated with the GraphPad Prism software.

OATP1B1 = target: T1, OATP1B1 (Homo sapiens, UniProt Q9Y6L6); format: in vitro ADME
T1 construct: host or cells: HEK293 (HEK293-OATP1B1), stably transfected
T1 sequence (Q9Y6L6 1-691): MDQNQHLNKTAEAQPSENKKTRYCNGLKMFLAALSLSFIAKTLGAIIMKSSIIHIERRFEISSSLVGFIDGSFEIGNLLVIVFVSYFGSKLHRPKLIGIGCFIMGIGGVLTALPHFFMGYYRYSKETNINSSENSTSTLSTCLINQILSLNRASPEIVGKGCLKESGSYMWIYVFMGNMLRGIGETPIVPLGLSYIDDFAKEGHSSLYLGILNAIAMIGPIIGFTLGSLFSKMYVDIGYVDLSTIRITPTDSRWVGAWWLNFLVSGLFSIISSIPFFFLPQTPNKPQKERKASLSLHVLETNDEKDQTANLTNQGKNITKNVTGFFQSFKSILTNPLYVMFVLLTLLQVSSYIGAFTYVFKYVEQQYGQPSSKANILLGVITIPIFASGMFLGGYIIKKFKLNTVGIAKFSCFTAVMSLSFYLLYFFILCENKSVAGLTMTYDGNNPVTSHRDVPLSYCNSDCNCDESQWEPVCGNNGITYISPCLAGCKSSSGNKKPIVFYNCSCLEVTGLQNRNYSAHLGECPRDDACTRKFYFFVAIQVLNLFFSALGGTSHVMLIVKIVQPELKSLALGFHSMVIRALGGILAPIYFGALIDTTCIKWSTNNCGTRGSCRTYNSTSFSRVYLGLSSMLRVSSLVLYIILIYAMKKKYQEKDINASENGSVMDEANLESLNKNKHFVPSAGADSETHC
Procedure: (§1) The OATP1B1 and OATP1B3 substrate assays were conducted at Wuxi utilizing the human embryonic kidney cell line, HEK293, stably transfected with human transporter genes. The identification of potential transporter substrates are achieved by measuring the Uptake Fold values in the transfected HEK293-OATP1B1 and OATP1B3 cells line and the HEK293-MOCK cell line in the Presence and Absence of positive inhibitors.
(§2) The objective of this study was to determine whether Compound I.2 and Compound I.6 are potential OATP1B1 and OATP1B3 uptake substrates.
(§3) HEK-293 cells stably expressing the human OATP1B1 and OATP1B3 transporter and the HEK293-MOCK cell line were licensed from GenoMembrane (Kanagawa, Japan). The culture medium was DMEM (HEK293-OATP1B3 cells were maintained in DMEM/F12) supplemented with 10.0% FBS, 500 μg/mL G418 sulfate solution, 100 U/mL penicillin-G and 100 μg/mL streptomycin. Cells were incubated in 5.0% CO2 at 37.0° C. with saturated humidity. HEK293-OATP1B1 (Passage: 19), OATP1B3 (Passage: 19), and HEK293-MOCK (Passage: 14 and 16) were grown to 80.0 to 90.0% confluence in the culture flask. Trypsin/EDTA (0.05%/0.02%, w/v) was added to detach the cells from the flask. The cells were seeded onto 96-well plates with a density of 5.00×10^4 cells/well, and then incubated for 24 hours in 5.0% CO2 at 37.0° C. with saturated humidity before being used in the uptake study.
(§4) Pre-incubation: Cell culture medium was removed from the 96-well plates seeded with either HEK293-OATP1B1 and OATP1B3 or HEK293-MOCK cells, followed by rinsing the cells twice with the warm (37.0° C.) Transport Buffer. The cells were then pre-incubated for 30 min with the Transport Buffer in the Presence and Absence of positive inhibitors in 5.0% CO2 at 37.0° C. with saturated humidity.
(§5) Uptake incubation: At the end of the pre-incubation, the buffers were removed and the cells were treated with Compound I.6 or Compound I.2 at 0.100 or 1.00 μM in the presence and absence of positive inhibitor. In separate wells, the marker substrate for transporter cells were incubated with dosing solution (Table A), all treatments were conducted in triplicate wells in 5.0% CO2 at 37.0° C. with saturated humidity.
(§6) Cell lysing: At the end of the incubations, dosing solution was removed. After removing the remaining dosing solution, the cell was rinsed three times with ice-cold Transport Buffer (2.0-8.0° C.) followed by adding 100 μL cold acetonitrile:methanol (95: 5, v: v) containing internal standard into the cells treated with test compound for bioanalysis. For the cells dosed with positive control, the cells were added 100 μL cold acetonitrile:methanol (95:5, v: v) containing internal standard for bioanalysis. All samples were gently shaken for 30 min. Then for test compound and positive control, 75 μL of the cell lysate was mixed with 75 μL of Transport Buffer and 150 μL of cold acetonitrile:methanol (95:5, v:v) containing internal standard. The lysis sample was centrifuged for 10 min at 3220×g before the supernatant, defined as the terminal sample, was taken for the determination of the intracellular uptake of the test compounds or substrate by LC-MS/MS.
(§7) Uptake Fold was calculated using equation (1)

OATP1B3 = target: T2, OATP1B3 (Homo sapiens, UniProt Q9NPD5); format: in vitro ADME
T2 construct: host or cells: HEK293 (HEK293-OATP1B3), stably transfected
T2 sequence (Q9NPD5 1-702): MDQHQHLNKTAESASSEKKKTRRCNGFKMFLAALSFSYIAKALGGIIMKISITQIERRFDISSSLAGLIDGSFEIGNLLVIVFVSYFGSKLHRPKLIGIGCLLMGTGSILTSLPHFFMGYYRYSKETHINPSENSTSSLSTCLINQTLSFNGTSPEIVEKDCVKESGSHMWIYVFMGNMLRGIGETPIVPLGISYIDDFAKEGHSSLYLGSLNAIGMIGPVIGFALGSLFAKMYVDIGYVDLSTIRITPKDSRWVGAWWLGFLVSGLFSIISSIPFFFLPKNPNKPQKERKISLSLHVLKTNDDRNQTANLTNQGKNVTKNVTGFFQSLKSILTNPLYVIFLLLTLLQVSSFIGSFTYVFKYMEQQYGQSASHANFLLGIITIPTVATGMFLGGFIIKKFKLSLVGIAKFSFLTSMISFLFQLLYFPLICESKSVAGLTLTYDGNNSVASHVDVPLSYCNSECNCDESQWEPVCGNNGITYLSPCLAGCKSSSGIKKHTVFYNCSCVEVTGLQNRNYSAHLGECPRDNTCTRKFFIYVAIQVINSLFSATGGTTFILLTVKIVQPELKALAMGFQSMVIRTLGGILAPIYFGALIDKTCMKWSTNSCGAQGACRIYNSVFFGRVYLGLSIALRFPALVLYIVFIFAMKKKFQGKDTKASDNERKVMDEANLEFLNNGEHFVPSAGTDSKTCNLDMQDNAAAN
Procedure: as §1, §2, §3, §4, §5, §6, §7

[1] = monkeys, starting at 4 weeks, more pronounced effect at 13 weeks; cited from earlier work
[2] = cited from earlier work

## CC(C)(C)[C@@H]1Cn2nc3c(OCCCCCCC(=O)O)cccc3c2-c2cc(=O)c(C(=O)O)cn21 [I.2, (R)-6-(tert-butyl)-10-((6-carboxyhexyl)oxy)-2-oxo-6,7-dihydro-2H-pyrido[2′,1′:3,4]pyrazino[1,2-b]indazole-3-carboxylic acid]
HBV S-antigen secretion
  EC50: 6.5 ± 2.5 nM
OATP1B1; 0.1 μM
  Uptake ratio: 2.87
OATP1B1; 1 μM
  Uptake ratio: 1.10
OATP1B3; 0.1 μM
  Uptake ratio: 2.23
OATP1B3; 1 μM
  Uptake ratio: 2.34

## COCCOc1cc2c(cc1COC)-c1cc(=O)c(C(=O)O)cn1N1[C@@H]2CCC1(C)C [GS-8873]
[1]
  nerve conduction velocity (NCV) of several peripheral nerves: prolong the nerve conduction velocity
[2]; 13 weeks, daily doses 20 MPK/day and 60 MPK/day
  change from baseline of rat caudal nerve NCV, digital NCV, cauda equina latency, digital latency, tibial nerve latency: greater than 20%
[2]; rats, starting at 4 weeks, more pronounced effect at 13 weeks
  nerve conduction velocity (NCV) of several peripheral nerves: prolong the nerve conduction velocity

## CC(C)(C)[C@@H]1Cn2nc3c(OCCCCCCCC(=O)O)cccc3c2-c2cc(=O)c(C(=O)O)cn21 [I.6, (R)-6-(tert-butyl)-10-((7-carboxyheptyl)oxy)-2-oxo-6,7-dihydro-2H-pyrido[2′,1′:3,4]pyrazino[1,2-b]indazole-3-carboxylic acid]
HBV S-antigen secretion
  EC50: 2.6 ± 0.6 nM
OATP1B1; 0.1 μM
  Uptake ratio: 11.5
OATP1B1; 1 μM
  Uptake ratio: 18.2
OATP1B3; 0.1 μM
  Uptake ratio: 1.74
OATP1B3; 1 μM
  Uptake ratio: 4.9
